BindingDB's records for doi:10.1021/jm061414r (The Scripps Research Institute, 2007)

biological target: T1, Carboxylic ester hydrolase (Homo sapiens, UniProt Q8TDZ9); assay: TGH Inhibition Assay
T1 sequence (Q8TDZ9 whole entry): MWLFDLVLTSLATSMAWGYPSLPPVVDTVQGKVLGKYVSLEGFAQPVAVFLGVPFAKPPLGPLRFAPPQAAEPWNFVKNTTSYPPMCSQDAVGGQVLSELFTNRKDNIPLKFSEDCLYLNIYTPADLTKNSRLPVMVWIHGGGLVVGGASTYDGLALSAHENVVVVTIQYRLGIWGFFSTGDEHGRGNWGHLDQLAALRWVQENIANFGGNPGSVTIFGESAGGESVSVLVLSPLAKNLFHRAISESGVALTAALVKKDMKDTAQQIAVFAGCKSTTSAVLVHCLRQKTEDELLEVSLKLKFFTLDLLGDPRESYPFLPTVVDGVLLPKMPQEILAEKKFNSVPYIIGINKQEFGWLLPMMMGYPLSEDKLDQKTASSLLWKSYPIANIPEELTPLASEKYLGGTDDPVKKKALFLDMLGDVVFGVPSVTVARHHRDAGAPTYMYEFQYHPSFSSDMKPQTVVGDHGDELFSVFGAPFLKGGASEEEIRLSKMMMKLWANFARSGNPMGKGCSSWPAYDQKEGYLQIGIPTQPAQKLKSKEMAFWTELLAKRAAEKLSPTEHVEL
Description: Inhibition of TGH activity was assayed using COS-7 expressed TGH and the chromogenic substrate. IC50 values were determined from the inhibition observed at 7 different inhibitor concentrations (three trials each).

Q: How did the IC50 turn out when O=C(CCc1ccc(COc2ccccc2)cc1)c1ncc(-c2ccccn2)o1 was run?
A: 2000 nM

Q: How did the IC50 turn out when O=C(CCc1ccc(OCc2ccccc2)cc1)c1ncc(-c2ccccn2)o1 [3-[4-(benzyloxy)phenyl]-1-[5-(pyridin-2-yl)-1,3-oxazol-2-yl]propan-1-one] was run?
A: 8000 nM

Q: Which IC50 does the source give for O=C(CCCCCCc1cccc(Cl)c1Cl)c1ncc(-c2ccccn2)o1 [7-(2,3-dichlorophenyl)-1-[5-(pyridin-2-yl)-1,3-oxazol-2-yl]heptan-1-one] here?
A: 500 nM
